The experiment is described as follows: Compound was tested for binding activity against N-methyl-D-aspartic acid(NMDA) receptor in rat brain crude synaptic membranes. It is filed as cell membranes.

We go through three molecules from ChEMBL document CHEMBL1129018, “Asymmetric synthesis of cis-()-(2R4S)-4-(phosphonomethyl)-2-piperidinecarboxylic acid, a potent NMDA receptor antagonist” (Bioorg Med Chem Lett, 1996).

`O=C(O)[C@@H]1C[C@H](CP(=O)(O)O)CCN1` (stereo in doubt) [SELFOTEL]: the IC50 (as a rule, the concentration at which inhibition is half-maximal) turned out to be 10000 nM. Molecule `O=C(O)[C@@H]1C[C@H](CP(=O)(O)O)CCN1` (stereo in doubt; form 2) [SELFOTEL] had an IC50 of 29 nM. The molecule `O=C(O)[C@@H]1C[C@H](CP(=O)(O)O)CCN1` (stereo in doubt; form 1) [SELFOTEL] returned an IC50 of 69 nM.
